Structures can show the parent of a compound that is named as a salt. Where two headings read alike, the source gives them in different places.
Key:
Assay in all cases: In vitro high-throughput screen of FDA-approved drug library (CellTiter-Glo)
Assay type in all cases: cell-based
A673 = conditions: for inhibition at 1 µM: Homo sapiens, read-out: % Inhibition A673
Experimental: (§1) We screened, in parallel to the three computational approaches, an FDA-approved drug library containing 2,316 drugs (1,536 unique chemical entities). […] The drug screening study protocol employed is summarized in Supplementary Table S1.
(§2) Cells were grown to 80–90% confluence, harvested and aliquoted into 384-well plates (black μClear microplates, Greiner bio-one, Germany) at concentrations of 750–1,500 cells per well in a total volume of 25 μl/well using a Matrix Wellmate (Thermo Scientific). Cells were cultured for 72 hours in a 5% CO2 atmosphere at 37°C. Aliquots of 25 μl CellTiter-Glo® Reagent (Promega) were added directly to each well, the plates were incubated at room temperature for 20 min and the luminescence signal was measured according to the manufacturer's protocol. The measurements were made using Infinite® M200 Pro plate reader (Tecan, Switzerland). […] Data were normalized to percentage inhibition. […]
(§3) (A) Color scale for drug inhibition values. […]

Hs 919.T. = conditions: for inhibition at 1 µM: read-out: % Inhibition Hs 919.T.
Experimental: as §1, §2, §3

RD-ES = conditions: for inhibition at 1 µM: RD-ES, read-out: % Inhibition RD-ES
Experimental: as §1, §2, §3

SK-ES-1 = conditions: for inhibition at 1 µM: Homo sapiens, read-out: % Inhibition SK-ES-1
Experimental: as §1, §2, §3

[1] = 1 μmol/L drug, 72 hours, control cell line
[2] = SK-ES1, 1 μmol/L drug, 72 hours

SMILES | inhibition at 1 µM (A673; A673, 1 μmol/L drug, 72 hours) [%] | inhibition at 1 µM (Hs 919.T.; [1]) [%] | inhibition at 1 µM (RD-ES; 1 μmol/L drug, 72 hours) [%] | inhibition at 1 µM (SK-ES-1; [2]) [%] | also measured
Nc1ccn([C@@H]2O[C@H](CO)[C@@H](O)[C@@H]2O)c(=O)n1 [Cytosine β-D-arabinofuranoside] | – | – | – | – | % Inhibition A673 (A673; 1 μmol/L drug, 72 hours): 84%; % Inhibition Hs 919.T. (Hs 919.T.; [1]): < 50%; % Inhibition RD-ES (RD-ES; 1 μmol/L drug, 72 hours): 93%; % Inhibition SK-ES-1 (SK-ES-1; 1 μmol/L drug, 72 hours): 98%
Cc1nc2ccc(CN(C)c3ccc(C(=O)N[C@@H](CCC(=O)O)C(=O)O)s3)cc2c(=O)[nH]1 [Raltitrexed] | 59 | < 50 | 80 | 51 | –
NC(=O)N/N=C/c1ccc([N+](=O)[O-])o1 [Nitrofural/Nitrofurazone, Nitrofurazone] | 52 | < 50 | 52 | 72 | –
O=c1[nH]c(=O)n([C@H]2C[C@H](O)[C@@H](CO)O2)cc1C(F)(F)F [Trifluridine] | < 50 | < 50 | 71 | < 50 | –
CO[C@@H]1[C@@H](OC(N)=O)[C@@H](O)[C@H](Oc2ccc3c(O)c(NC(=O)c4ccc(O)c(CC=C(C)C)c4)c(=O)oc3c2C)OC1(C)C [Novobiocin sodium] | 60 | < 50 | 51 | < 50 | –
CC[C@@]1(O)C(=O)OCc2c1cc1n(c2=O)Cc2cc3ccccc3nc2-1 [Camptothecine (S,+)] | – | – | – | – | % Inhibition A673 (A673; 1 μmol/L drug, 72 hours): 99%; % Inhibition Hs 919.T. (Hs 919.T.; [1]): < 50%; % Inhibition RD-ES (RD-ES; 1 μmol/L drug, 72 hours): 97%; % Inhibition SK-ES-1 (SK-ES-1; 1 μmol/L drug, 72 hours): 96%
Nc1nc(O)c2[nH]nnc2n1 [Azaguanine-8] | – | – | – | – | % Inhibition A673 (A673; 1 μmol/L drug, 72 hours): 83%; % Inhibition Hs 919.T. (Hs 919.T.; [1]): < 50%; % Inhibition RD-ES (RD-ES; 1 μmol/L drug, 72 hours): < 50%; % Inhibition SK-ES-1 (SK-ES-1; 1 μmol/L drug, 72 hours): < 50%
NNC(=O)c1ccncc1 [Isoniazid] | 56 | < 50 | < 50 | < 50 | –
Clc1ccccc1CN1CCc2sccc2C1 [Ticlopidine] | 66 | < 50 | < 50 | < 50 | –
COC(=O)Nc1nc2ccc(Sc3ccccc3)cc2[nH]1 [Fenbendazole] | 75 | < 50 | 86 | 78 | –
Cc1cc(/C=C/c2ccc3cc(N(C)C)ccc3[n+]2C)c(C)n1-c1ccccc1 [Pyrvinium pamoate] | 84 | < 50 | 98 | 96 | –
C=C1[C@@H]2CC[C@H]3[C@]4(C)C[C@H](O[C@@H]5O[C@H](CO)[C@@H](OS(=O)(=O)[O-])[C@H](OS(=O)(=O)[O-])[C@H]5OC(=O)CC(C)C)C[C@@H](C(=O)O)[C@H]4CC[C@]3(C2)[C@H]1O.[K+].[K+] [Atractyloside potassium salt] | – | – | – | – | % Inhibition A673 (A673; 1 μmol/L drug, 72 hours): 99%; % Inhibition Hs 919.T. (Hs 919.T.; [1]): < 50%; % Inhibition RD-ES (RD-ES; 1 μmol/L drug, 72 hours): 98%; % Inhibition SK-ES-1 (SK-ES-1; 1 μmol/L drug, 72 hours): 99%
CO[C@H]1C[C@@H]2CC[C@@H](C)[C@@](O)(O2)C(=O)C(=O)N2CCCC[C@H]2C(=O)O[C@H]([C@H](C)C[C@@H]2CC[C@@H](O)[C@H](OC)C2)CC(=O)[C@H](C)/C=C(\C)[C@@H](O)[C@@H](OC)C(=O)[C@H](C)C[C@H](C)/C=C/C=C/C=C/1C [Rapamycin] | 67 | < 50 | 62 | 51 | –
O=c1c2ccccc2[se]n1-c1ccccc1 [Ebselen] | 93 | < 50 | 95 | 96 | –
CCCCC/C=C\C/C=C\C/C=C\C/C=C\CCCC(=O)Nc1ccc(O)cc1 [AM 404] | – | – | – | – | % Inhibition A673 (A673; 1 μmol/L drug, 72 hours): 65%; % Inhibition Hs 919.T. (Hs 919.T.; [1]): < 50%; % Inhibition RD-ES (RD-ES; 1 μmol/L drug, 72 hours): < 50%; % Inhibition SK-ES-1 (SK-ES-1; 1 μmol/L drug, 72 hours): < 50%
S=c1[nH]cnc2nc[nH]c12 [Mercaptopurine] | < 50 | < 50 | < 50 | 57 | –
CCN(CC)C(=S)SSC(=S)N(CC)CC [Disulfiram] | 99 | < 50 | 96 | 95 | –
COc1cc2c3cc1Oc1cc(ccc1O)C[C@@H]1c4c(cc(OC)c(O)c4Oc4ccc(cc4)C[C@@H]3N(C)CC2)CC[N+]1(C)C.Cl.O.O.O.O.O.[Cl-] [(+)-Tubocurarine chloride] | – | – | – | – | % Inhibition A673 (A673; 1 μmol/L drug, 72 hours): < 50%; % Inhibition Hs 919.T. (Hs 919.T.; [1]): < 50%; % Inhibition RD-ES (RD-ES; 1 μmol/L drug, 72 hours): 51%; % Inhibition SK-ES-1 (SK-ES-1; 1 μmol/L drug, 72 hours): < 50%
CCCOc1ccc2nc(NC(=O)OC)[nH]c2c1 [Oxibendazole] | 64 | < 50 | 80 | 84 | –

SMILES | inhibition at 1 µM (A673; A673, 1 μmol/L drug, 72 hours) [%] | inhibition at 1 µM (Hs 919.T.; [1]) [%] | inhibition at 1 µM (RD-ES; 1 μmol/L drug, 72 hours) [%] | inhibition at 1 µM (SK-ES-1; [2]) [%] | also measured
N[C@@H](Cc1ccc(N(CCCl)CCCl)cc1)C(=O)O [Melphalan] | < 50 | < 50 | 95 | 91 | –
CN(Cc1cnc2nc(N)nc(N)c2n1)c1ccc(C(=O)N[C@@H](CCC(=O)O)C(=O)O)cc1 [L-Glutamic acid, N-[4-[[(2,4-diamino-6-pteridinyl)methyl]methylamino]benzoyl]] | – | – | – | – | % Inhibition A673 (A673; 1 μmol/L drug, 72 hours): 85%; % Inhibition Hs 919.T. (Hs 919.T.; [1]): < 50%; % Inhibition RD-ES (RD-ES; 1 μmol/L drug, 72 hours): 77%; % Inhibition SK-ES-1 (SK-ES-1; 1 μmol/L drug, 72 hours): 57%
Nc1nc(Cl)nc2c1ncn2[C@H]1C[C@H](O)[C@@H](CO)O1 [Cladribine] | 87 | < 50 | 99 | 89 | –
CC(=O)O[C@H]1C(=O)[C@@]2(C)[C@H]([C@H](OC(=O)c3ccccc3)[C@]3(O)C[C@H](OC(=O)[C@H](O)[C@@H](NC(=O)c4ccccc4)c4ccccc4)C(C)=C1C3(C)C)[C@]1(OC(C)=O)CO[C@@H]1C[C@@H]2O [Paclitaxel/Taxol, Paclitaxel] | 96 | < 50 | 97 | 96 | –
CC[C@@]1(O)C(=O)OCc2c1cc1n(c2=O)Cc2cc3c(CN(C)C)c(O)ccc3nc2-1 [Topotecan HCl] | 97 | < 50 | 97 | 96 | –
Cn1cnc([N+](=O)[O-])c1Sc1ncnc2nc[nH]c12 [Azathioprine] | < 50 | < 50 | < 50 | 52 | –
Nc1nc(Cl)nc2c1ncn2[C@@H]1O[C@H](CO)[C@@H](O)[C@@H]1F [Clofarabine] | 93 | < 50 | 99 | 98 | –
CN(Cc1cnc2nc(N)nc(N)c2n1)c1ccc(C(=O)N[C@@H](CCC(=O)O)C(=O)O)cc1 (racemic) [Methotrexate/Amethopterin (R,S), Methotrexate] | 89 | < 50 | 82 | < 50 | –
CCC(C)(C)c1ccc(CC(C)CN2C[C@@H](C)O[C@@H](C)C2)cc1 (stereo partly shown) [Amorolfine] | 56 | < 50 | < 50 | < 50 | –
CCc1c2c(nc3ccc(OC(=O)N4CCC(N5CCCCC5)CC4)cc13)-c1cc3c(c(=O)n1C2)COC(=O)[C@]3(O)CC.Cl [Irinotecan Hydrochloride] | – | – | – | – | % Inhibition A673 (A673; 1 μmol/L drug, 72 hours): 83%; % Inhibition Hs 919.T. (Hs 919.T.; [1]): < 50%; % Inhibition RD-ES (RD-ES; 1 μmol/L drug, 72 hours): 99%; % Inhibition SK-ES-1 (SK-ES-1; 1 μmol/L drug, 72 hours): 98%
C[C@]12CC[C@@H]3c4ccc(O)cc4CC[C@H]3[C@@H]1CC[C@@H]2O [Estradiol] | 65 | < 50 | < 50 | < 50 | –
CCCCCC[C@H]1C(=O)O[C@H](C)[C@H](NC(=O)c2cccc(NC=O)c2O)C(=O)O[C@@H](C)[C@@H]1OC(=O)CC(C)C [Antimycin A] | < 50 | < 50 | 69 | < 50 | –
C[C@]12CCC(=O)C=C1CC[C@@H]1[C@@H]2CC[C@@]2(C)[C@H]1CC[C@]2(C)O [Methyltestosterone] | < 50 | < 50 | 73 | < 50 | –
CCCSc1ccc2nc(NC(=O)OC)[nH]c2c1 [Albendazole] | – | – | – | – | inhibition at 1 µM (A673; A673, 72 h): 89%; inhibition at 1 µM (Hs 919.T.; 72 h): < 50%; inhibition at 1 µM (RD-ES; 72 h): 93%; inhibition at 1 µM (SK-ES-1; SK-ES1, 72 h): 93%
N=c1ccn2c(n1)O[C@H]1[C@H](O)[C@@H](CO)O[C@H]12 [Cyclocytidine] | 86 | < 50 | 83 | 98 | –
COC(=O)Nc1nc2cc(C(=O)c3ccc(F)cc3)ccc2[nH]1 [Flubendazole] | 77 | < 50 | 86 | 86 | –
CCOC(=O)C1=C[C@@H](OC(CC)CC)[C@H](NC(C)=O)[C@@H](N)C1 [Oseltamivir] | 95 | < 50 | 95 | 98 | –
COC(=O)Nc1nc2ccc(C(=O)c3ccccc3)cc2[nH]1 [Mebendazole] | 94 | < 50 | 95 | 96 | –
